Columns and labels:
M2 receptor = biological target: T1, M2 receptor (Homo sapiens, UniProt P08172); test: BRET real-time monitoring of G-protein activation via M2 in HEK293T/17 cells; type: cell-based; set-up: expressed in transfected cells; host or cells: HEK293T/17 cells, transient transfection; settings: for Activation of Gαi/o and Gα15 types: saturating concentration (100 μM; 1 mM for JB-12-2, JB-13-1)
T1 sequence (P08172 1-466): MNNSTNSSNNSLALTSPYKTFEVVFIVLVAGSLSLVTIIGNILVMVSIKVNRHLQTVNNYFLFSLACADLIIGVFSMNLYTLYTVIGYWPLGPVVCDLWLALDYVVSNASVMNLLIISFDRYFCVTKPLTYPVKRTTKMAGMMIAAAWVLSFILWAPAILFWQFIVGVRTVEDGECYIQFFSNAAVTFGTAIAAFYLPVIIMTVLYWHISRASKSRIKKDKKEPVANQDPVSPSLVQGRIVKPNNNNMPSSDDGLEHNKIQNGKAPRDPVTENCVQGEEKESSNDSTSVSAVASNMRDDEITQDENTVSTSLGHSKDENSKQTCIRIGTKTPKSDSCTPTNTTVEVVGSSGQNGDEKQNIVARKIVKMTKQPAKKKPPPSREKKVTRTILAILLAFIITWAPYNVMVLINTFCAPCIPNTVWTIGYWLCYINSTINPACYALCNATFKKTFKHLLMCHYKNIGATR
Protocol: HE/K293T17 cells were obtained from The Global Bioresource Center ATCC (Manassas, VA, USA). Cells were grown in 100 mm petri dishes in Dulbecco’s modified Eagle’s medium (DMEM) supplemented with 10% fetal bovine serum (FBS), MEM non-essential amino acids, 1 mM sodium pyruvate, and antibiotics (100 units/ml penicillin and 100 μg/ml streptomycin) at 37 °C in a humidified incubator containing 5% CO2[41]. Transfection was performed according to Masuho et al.[41]. Culture dishes (3.5 cm) were coated by incubation for 10 min at 37 °C with 1 ml of Matrigel solution [approximately 10 μg/ml of growth factor-reduced Matrigel (BD biosciences; LOT: 2278001) in culture medium]. For transfections, cells were seeded in the 3.5 cm dishes containing the Matrigel solution at a density of 1.7 × 10^6 cells/dish. Four hours later, the cells were transfected with the appropriate expression constructs (total of 5 μg DNA per dish) with the reagents PLUS (5 μl/dish) and Lipofectamine LTX (Thermo Fisher Scientific; LOT: 2640614) (6 μl/dish). The cells were transfected with the Venus 156-239-Gβ1 (0.21 μg), Venus 1–155-Gγ2 (0.21 μg), and masGRK3ct-Nluc (0.21 μg) constructs in addition to the different amounts of constructs for the M2 receptor and Gα of interest. Gα14 subunit was co-transfected with Ric-8A chaperone (0.21 μg). Cells were cotransfected with a pcDNA3.1 construct encoding the catalytic subunit of pertussis toxin (PTX-S1) (0.21 μg) and constructs encoding Gα15, Gα14, Gα11, Gαq to ensure that the small BRET signals were not contaminated by the possible recruitment of endogenous Gαi/o proteins. The empty vector pcDNA3.1 was used to normalize the amount of DNA in each transfection.
To examine the activation of G-protein signalling in live cells, agonist-dependent cellular measurements of BRET between Venus-Gβ1γ2 and masGRK3ct-Nluc were performed as described by Masuho et al.[41]. […]. Cells were harvested by centrifugation at 500×g for 5 min and were resuspended in BRET buffer. About 50,000 to 100,000 cells per well were distributed in 96-well flat-bottomed white microplates (Greiner Bio-One) in a volume of 25 µl. 25 µl of 2× luciferase substrate: Nano-Glo™ luciferase assay substrate (Promega; LOT: 0000527335) dissolved in 250 volumes of BRET buffer was added. BRET measurements were made with a microplate reader (POLARstar Omega, BMG Labtech) equipped with two emission photomultiplier tubes, which enabled the detection of two emissions simultaneously with the highest possible resolution of 20 ms per data point. All measurements were performed at room temperature. The BRET signal was determined by calculating the ratio of the light emitted by Venus-Gβ1γ2 (535 nm with a 30 nm band path width) to the light emitted by masGRK3ct-Nluc (475 nm with a 30 nm band path width). The average baseline value (basal BRET ratio) recorded before stimulation of cells with an agonist was subtracted from the experimental BRET signal values to obtain the ΔBRET ratio.
The ΔBRET ratio from real-time monitoring of G-protein activation was fitted using monophasic association according to Eq. 9.9 Y=Beq×(1-exp-Kobs×x where y is the ΔBRET ratio of the light emitted by Venus-Gβ1γ2 (535/30) to the light emitted by masGRK3ct-Nluc (475/30). Beq is Y-value at the equilibrium expressing the maximal amplitude of ΔBRET ratio, x is time and Kobs is the observed rate of Gα subunit activation.

M3 receptor = M3 receptor (Homo sapiens, UniProt P20309); test: BRET real-time monitoring of G-protein activation via M3 in HEK293T/17 cells; type: cell-based; set-up: expressed in transfected cells; host or cells: HEK293T/17 cells, transient transfection; settings: for Activation of Gαq/11 types: saturating concentration (100 μM; 1 mM for JB-12-2, JB-13-1); for Response at Gα15: saturating concentration
Sequence of M3 receptor (P20309 whole entry): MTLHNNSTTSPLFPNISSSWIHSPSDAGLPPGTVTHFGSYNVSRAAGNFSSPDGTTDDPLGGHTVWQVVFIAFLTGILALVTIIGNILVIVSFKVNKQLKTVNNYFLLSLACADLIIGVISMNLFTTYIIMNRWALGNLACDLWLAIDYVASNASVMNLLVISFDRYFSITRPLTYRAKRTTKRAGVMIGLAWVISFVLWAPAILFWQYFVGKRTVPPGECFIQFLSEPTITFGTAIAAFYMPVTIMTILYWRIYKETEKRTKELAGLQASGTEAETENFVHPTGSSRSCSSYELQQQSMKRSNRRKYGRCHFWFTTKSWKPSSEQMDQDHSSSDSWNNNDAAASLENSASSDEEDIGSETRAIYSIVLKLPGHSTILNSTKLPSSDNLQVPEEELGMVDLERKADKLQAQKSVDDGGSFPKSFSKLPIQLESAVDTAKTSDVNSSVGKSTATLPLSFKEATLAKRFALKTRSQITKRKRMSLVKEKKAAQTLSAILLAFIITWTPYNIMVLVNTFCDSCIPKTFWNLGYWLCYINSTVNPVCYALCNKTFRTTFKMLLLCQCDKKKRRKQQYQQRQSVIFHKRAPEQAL
Protocol: HE/K293T17 cells were obtained from The Global Bioresource Center ATCC (Manassas, VA, USA). Cells were grown in 100 mm petri dishes in Dulbecco’s modified Eagle’s medium (DMEM) supplemented with 10% fetal bovine serum (FBS), MEM non-essential amino acids, 1 mM sodium pyruvate, and antibiotics (100 units/ml penicillin and 100 μg/ml streptomycin) at 37 °C in a humidified incubator containing 5% CO2[41]. Transfection was performed according to Masuho et al.[41]. […] Gα14 subunit was co-transfected with Ric-8A chaperone (0.21 μg). Cells were cotransfected with a pcDNA3.1 construct encoding the catalytic subunit of pertussis toxin (PTX-S1) (0.21 μg) and constructs encoding Gα15, Gα14, Gα11, Gαq to ensure that the small BRET signals were not contaminated by the possible recruitment of endogenous Gαi/o proteins. The empty vector pcDNA3.1 was used to normalize the amount of DNA in each transfection.
To examine the activation of G-protein signalling in live cells, agonist-dependent cellular measurements of BRET between Venus-Gβ1γ2 and masGRK3ct-Nluc were performed as described by Masuho et al.[41]. […] Cells were harvested by centrifugation at 500×g for 5 min and were resuspended in BRET buffer. About 50,000 to 100,000 cells per well were distributed in 96-well flat-bottomed white microplates (Greiner Bio-One) in a volume of 25 µl. […] BRET measurements were made with a microplate reader (POLARstar Omega, BMG Labtech) equipped with two emission photomultiplier tubes, which enabled the detection of two emissions simultaneously with the highest possible resolution of 20 ms per data point. All measurements were performed at room temperature. […] The average baseline value (basal BRET ratio) recorded before stimulation of cells with an agonist was subtracted from the experimental BRET signal values to obtain the ΔBRET ratio.

| Compound | Activation of Gαi/o and Gα15 types (M2 receptor) | Activation of Gαq/11 types (M3 receptor) | Response at Gα15 (M3 receptor) | Activation magnitude at Gq, % of CBC (M3 receptor; 100 μM) | further results |
| --- | --- | --- | --- | --- | --- |
| C[N+](C)(C)CCOC(N)=O [CBC, carbachol, reference compound] | activated all tested Gαi/o types and promiscuous Gα15 |  |  |  | Maximal amplitude at Gi1 as % of GoA (M2 receptor; CBC 100 μM): ~ 25% |
| c1csc(C[N+]23CCC(CC2)CC3)c1 [JB-8A] | did not detect | did not activate any Gαq/11 type |  |  |  |
| C[N+]1(Cc2cccs2)CCOCC1 [JB-12-2] |  | activated all Gαq/11 types | activated |  | Activation of GoA and GoB, % of CBC magnitude (M2 receptor; saturating concentration (JR-6 100 μM, JB-12-2 1 mM)): approximately 12% |
| COC(=O)C1=CCCN(Cc2cccs2)C1 [JB-13-1] | activated only GαoA | did not activate any Gαq/11 type |  |  |  |
| C[N+]1(Cc2cccs2)CC=CCC1 (centres unmarked) [JR-6, 1-methyl-1-[(thiophen-2-yl)methyl]-1,2,3,6-tetra hydropyridin-1-ium] |  |  | no response | approximately 30% | Response at Gα14 (M3 receptor; 100 μM): weak response |
| C[N+]1(Cc2ccc(Cl)s2)CC=CCC1 (centres unmarked) [PN-152, 1-[(5-chlorothiophen-2-yl)methyl]-1-methyl-1,2,3,6-tetrahydropyridin-1-ium] | did not detect |  |  | 10% |  |

Source: PMC11053168, “Agonist-selective activation of individual G-proteins by muscarinic receptors” (Scientific Reports, 2024)
